The target of test [1] is D(2) dopamine receptor (Rattus norvegicus) (UniProt P61169). The experiment in a line: (§1) Displacement of [3H]-raclopride from D2 receptor of Wistar rat striatal membranes after 1 hr by liquid scintillation counting. It counts as cell membranes. Particulars: Membrane.
Test [2] is filed under the species Rattus norvegicus. The experiment in a line: Selectivity ratio of Ki for D1 receptor of Wistar rat striatal membranes to Ki for D2 receptor of Wistar rat striatal membranes. In kind it is cell membranes. Particulars: Membrane.
The target in test [3] is D(2) dopamine receptor (Rattus norvegicus, UniProt P61169). The description is as §1. In kind it is cell membranes, Membrane.
Chain of D(2) dopamine receptor (P61169 whole entry): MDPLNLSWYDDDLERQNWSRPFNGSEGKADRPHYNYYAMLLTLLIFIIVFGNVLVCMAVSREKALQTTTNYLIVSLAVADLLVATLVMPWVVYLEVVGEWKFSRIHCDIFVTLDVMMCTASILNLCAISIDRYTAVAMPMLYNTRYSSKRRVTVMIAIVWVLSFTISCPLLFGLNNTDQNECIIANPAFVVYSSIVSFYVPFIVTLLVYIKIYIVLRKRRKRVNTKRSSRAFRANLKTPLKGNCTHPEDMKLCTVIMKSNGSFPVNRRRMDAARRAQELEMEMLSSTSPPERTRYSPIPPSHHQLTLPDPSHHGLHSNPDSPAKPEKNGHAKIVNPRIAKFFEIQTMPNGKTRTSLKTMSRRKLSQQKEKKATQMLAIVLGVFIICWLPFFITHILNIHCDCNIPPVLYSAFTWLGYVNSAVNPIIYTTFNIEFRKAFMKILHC
For test [4], the target named is D(1A) dopamine receptor (Rattus norvegicus, UniProt P18901). The experiment in a line: Displacement of [3H]-SCH23390 from D1 receptor of Wistar rat striatal membranes after 1 hr by liquid scintillation counting. It counts as cell membranes, Membrane. On the technique in general: Loss of bound radioactivity is the signal in a displacement assay; it reports binding, not function.
Chain of D(1A) dopamine receptor (P18901 whole entry): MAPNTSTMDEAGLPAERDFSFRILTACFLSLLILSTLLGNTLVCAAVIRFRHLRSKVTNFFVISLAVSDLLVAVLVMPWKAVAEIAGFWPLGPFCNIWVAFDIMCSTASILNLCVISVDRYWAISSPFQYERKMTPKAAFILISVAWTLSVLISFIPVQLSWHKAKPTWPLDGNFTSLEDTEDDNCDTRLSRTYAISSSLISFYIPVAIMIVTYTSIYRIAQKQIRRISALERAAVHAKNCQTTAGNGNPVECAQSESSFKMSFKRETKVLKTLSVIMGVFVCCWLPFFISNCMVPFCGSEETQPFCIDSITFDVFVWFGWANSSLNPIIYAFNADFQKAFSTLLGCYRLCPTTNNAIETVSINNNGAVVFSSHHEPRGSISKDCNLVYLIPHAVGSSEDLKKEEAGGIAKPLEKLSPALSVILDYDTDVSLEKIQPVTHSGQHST

Molecules are shown by their SMILES. Activity calls are given as the source filed them. The calls are words filed in the database; no cut-off is given here.

Chain of D(2) dopamine receptor (Rattus norvegicus) (P61169 whole entry): as the sequence (P61169 whole entry) above

`COc1cc(CC[N+](C)(C)C)c2ccc3ccccc3c2c1OC`: the outcome in test [1] was inactive.
As to `CN1CCc2cc(O)c(O)c3c2C1Cc1ccccc1-3` (configuration not stated), in test [2], the Ratio Ki is 8.9. Besides, the Ki in test [3] (read-out: Ki) is 45 nM; in test [3] (read-out: pKi (converted)), 38.6 nM; in test [4] (read-out: Ki), 401 nM; in test [4] (read-out: pKi (converted)), 397 nM.
The like results for `COc1cc(CCN(C)C)c2ccc3ccccc3c2c1OC` were, in that order, 9.1, 323 nM, 321 nM, 2940 nM and 2920 nM.
`COc1cc2c3c(c1OC)-c1ccccc1CC3[N+](C)(C)CC2` (configuration not stated): the result in test [1] was inactive.
As for `C[N+](C)(C)CCc1cc2c(c3c1ccc1ccccc13)OCO2`, the outcome in test [1] was inactive.
In the case of `CN(C)CCc1cc2c(c3c1ccc1ccccc13)OCO2`, in test [2], the Ratio Ki was 96. Moreover, the Ki was 66 nM in test [3] (read-out: Ki), 64.7 nM in test [3] (read-out: pKi (converted)), 6350 nM in test [4] (read-out: Ki) and 4140 nM in test [4] (read-out: pKi (converted)).
Take `COc1cc2c3c(c1OC)-c1ccccc1CC3N(C)CC2` (racemic) [(+/-)-NUCIFERINE]: the Ki in test [3] (read-out: Ki) was 209 nM; in test [3] (read-out: pKi (converted)), 173 nM; in test [4] (read-out: Ki), 630 nM; in test [4] (read-out: pKi (converted)) it was 587 nM.
`C[N+]1(C)CCc2cc3c(c4c2C1Cc1ccccc1-4)OCO3` (racemic): in test [1], the result was inactive.
As to `CN1CCc2cc3c(c4c2C1Cc1ccccc1-4)OCO3` (racemic) [ROEMERINE], the Ratio Ki in test [2] stood at 4.4. For the same compound, the Ki in test [3] (read-out: Ki) was 84 nM; in test [4] (read-out: Ki), 377 nM; in test [4] (read-out: pKi (converted)) it was 324 nM.
Consider `CN(C)CCc1cc(O)c(O)c2c1ccc1ccccc12`, for which the Ratio Ki in test [2] was determined as 157. Moreover, the Ki is 49 nM in test [3] (read-out: Ki), 38.5 nM in test [3] (read-out: pKi (converted)), 7700 nM in test [4] (read-out: Ki) and 6190 nM in test [4] (read-out: pKi (converted)).

The values above are taken from ChEMBL document CHEMBL2413048, “3,4-Dihydroxy- and 3,4-methylenedioxy- phenanthrene-type alkaloids with high selectivity for D2 dopamine receptor” (Bioorg Med Chem Lett, 2013).
